Source: ChEMBL document CHEMBL1156904, “Part II: piperazinyl-glutamate-pyridines as potent orally bioavailable P2Y12 antagonists for inhibition of platelet aggregation” (Bioorg Med Chem Lett, 2010)

How the values were obtained:
[1] = Antiplatelet activity in human platelet rich plasma assessed as inhibition of ADP-induced platelet aggregation relative to AZD-6140; type: functional
[2] = Metabolic stability in human microsomes; type: ADME, Microsome
[3] = Antiplatelet activity in human platelet rich plasma assessed as inhibition of ADP-induced platelet aggregation; type: functional
[4] = Metabolic stability in rat microsomes; type: ADME, Microsome
P2Y purinoceptor 12 = P2Y purinoceptor 12 (Homo sapiens, UniProt Q9H244); assay: Inhibition of human P2Y12 receptor expressed in CHO cells
Sequence of P2Y purinoceptor 12 (Q9H244 whole entry): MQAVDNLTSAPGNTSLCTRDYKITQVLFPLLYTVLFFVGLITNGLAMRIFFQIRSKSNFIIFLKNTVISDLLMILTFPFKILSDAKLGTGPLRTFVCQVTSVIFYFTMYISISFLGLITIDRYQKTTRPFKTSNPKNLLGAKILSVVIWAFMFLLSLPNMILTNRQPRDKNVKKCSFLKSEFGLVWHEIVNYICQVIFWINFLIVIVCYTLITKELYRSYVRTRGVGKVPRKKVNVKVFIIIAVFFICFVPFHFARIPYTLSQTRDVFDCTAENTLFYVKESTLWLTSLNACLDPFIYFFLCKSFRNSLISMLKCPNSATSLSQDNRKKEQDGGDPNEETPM

Structure (SMILES) | fold change (FC) [1] | Stability [2] | IC50 [3] [nM] | Stability [4] | Ki (P2Y purinoceptor 12) [nM]
CCCCCOC(=O)N1CCN(C(=O)[C@H](CCC(=O)O)NC(=O)c2cc(N3CCC(C(=O)N(C)C)CC3)cc(-c3ccccc3)n2)CC1 | 0.72 | Stable | 600 | Stable | 0.98
CCCCCOC(=O)N1CCN(C(=O)[C@H](CCC(=O)O)NC(=O)c2cc(N3CCN(CCN)CC3)cc(-c3ccccc3)n2)CC1 | 1.6 | Stable | 1100 | Stable | 4.5
CCCCCOC(=O)N1CCN(C(=O)[C@H](CCC(=O)O)NC(=O)c2cc(N3CCC(CCN)CC3)cc(-c3ccccc3)n2)CC1 | 0.66 | Stable | 860 | Stable | 2.8
CCCCCOC(=O)N1CCN(C(=O)[C@H](CCC(=O)O)NC(=O)c2cc(N3CC(N4CCOCC4)C3)cc(-c3ccccc3)n2)CC1 | – | Stable | 1400 | Stable | 3.3
CCCCCOC(=O)N1CCN(C(=O)[C@H](CCC(=O)O)NC(=O)c2cc(N3CC(CNC)C3)cc(-c3ccccc3)n2)CC1 | 1.9 | Stable | 1300 | Stable | 7.1
CCCCCOC(=O)N1CCN(C(=O)[C@H](CCC(=O)O)NC(=O)c2cc(N3CCC(CNCC)CC3)cc(-c3ccccc3)n2)CC1 | 1.2 | Stable | 950 | Stable | 1.5
CCCCCOC(=O)N1CCN(C(=O)[C@H](CCC(=O)O)NC(=O)c2cc(N3CCCC(OC)C3)cc(-c3ccccc3)n2)CC1 (some centres undefined) | 6.3 | Stable | 5200 | Stable | 31
CCCCOC(=O)N1CCN(C(=O)[C@H](CCC(=O)O)NC(=O)c2cc(N3CCC(CN(CC)CC)CC3)cc(-c3ccccc3)n2)CC1 | 2.1 | Stable | 2400 | Stable | 7.5
CCCCOC(=O)N1CCN(C(=O)[C@H](CCC(=O)O)NC(=O)c2cc(N3CCC(CNC)CC3)cc(-c3ccccc3)n2)CC1 | 1 | Stable | 910 | Stable | 4
CCCCCOC(=O)N1CCN(C(=O)C(CCC(=O)O)NC(=O)c2cc(N3CCC(CO)C3)cc(-c3ccccc3)n2)CC1 (mixture of isomers) | 11 | Stable | 29000 | Stable | 21
CCCCCOC(=O)N1CCN(C(=O)[C@H](CCC(=O)O)NC(=O)c2cc(N3CC(C(N)=O)C3)cc(-c3ccccc3)n2)CC1 | – | Stable | 1900 | Stable | 0.64
CCCCCOC(=O)N1CCN(C(=O)[C@H](CCC(=O)O)NC(=O)c2cc(N3CCCC(C(=O)N(CC)CC)C3)cc(-c3ccccc3)n2)CC1 (some centres undefined) | 4.2 | Stable | 7700 | Stable | 26
CCCCCOC(=O)N1CCN(C(=O)[C@H](CCC(=O)O)NC(=O)c2cc(N3CCN(C(=O)N(C)C)CC3)cc(-c3ccccc3)n2)CC1 | 3.6 | Stable | 3000 | Stable | 5.9
CCCCOC(=O)N1CCN(C(=O)[C@H](CCC(=O)O)NC(=O)c2cc(N3CCC(C(=O)NCC)CC3)cc(-c3ccccc3)n2)CC1 | 0.9 | Stable | 1200 | Stable | 0.68
CCCCCOC(=O)N1CCN(C(=O)[C@H](CCC(=O)O)NC(=O)c2cc(N3CCC(C(=O)NC)CC3)cc(-c3ccccc3)n2)CC1 | 0.86 | Stable | 1600 | Stable | 7.9
CCCCCOC(=O)N1CCN(C(=O)[C@H](CCC(=O)O)NC(=O)c2cc(N3CCN(C(=O)N4CCCC4)CC3)cc(-c3ccccc3)n2)CC1 | 14 | Stable | 6100 | Stable | 10
CCCCCOC(=O)N1CCN(C(=O)[C@H](CCC(=O)O)NC(=O)c2cc(N3CCC(CN)CC3)cc(-c3ccccc3)n2)CC1 | 0.62 | Stable | 780 | Stable | 15
CCCCCOC(=O)N1CCN(C(=O)[C@H](CCC(=O)O)NC(=O)c2cc(N3CCC(CNC(C)=O)CC3)cc(-c3ccccc3)n2)CC1 | 3.9 | Stable | 6800 | Stable | 25
CCCCCOC(=O)N1CCN(C(=O)[C@H](CCC(=O)O)NC(=O)c2cc(N3CC(C(=O)NCC)C3)cc(-c3ccccc3)n2)CC1 | 1.5 | Stable | 1800 | Stable | 2

Structure (SMILES) | fold change (FC) [1] | Stability [2] | IC50 [3] [nM] | Stability [4] | Ki (P2Y purinoceptor 12) [nM]
CCCCCOC(=O)N1CCN(C(=O)[C@H](CCC(=O)O)NC(=O)c2cc(N3CCN(CC(=O)N(CC)CC)CC3)cc(-c3ccccc3)n2)CC1 | 3.2 | Stable | 2900 | Stable | 5.9
CCCCCOC(=O)N1CCN(C(=O)[C@H](CCC(=O)O)NC(=O)c2cc(N3CCN(CC(=O)N4CCCC4)CC3)cc(-c3ccccc3)n2)CC1 | 2.2 | Stable | 1600 | Stable | 5.2
CCCCCOC(=O)N1CCN(C(=O)[C@H](CCC(=O)O)NC(=O)c2cc(N3CCN(CCC)CC3)cc(-c3ccccc3)n2)CC1 | 6.3 | Stable | 5000 | Stable | 29
CCCCCOC(=O)N1CCN(C(=O)[C@H](CCC(=O)O)NC(=O)c2cc(N3CCN(CCOC)CC3)cc(-c3ccccc3)n2)CC1 | 2.1 | Stable | 1100 | Stable | 8.3
CCCCCOC(=O)N1CCN(C(=O)[C@H](CCC(=O)O)NC(=O)c2cc(N3CCC(C(=O)NC(C)C)CC3)cc(-c3ccccc3)n2)CC1 | 0.64 | Stable | 750 | Stable | 6
CCCCCOC(=O)N1CCN(C(=O)[C@H](CCC(=O)O)NC(=O)c2cc(N3CCN(C(=O)C(C)C)CC3)cc(-c3ccccc3)n2)CC1 | 6.6 | Stable | 5000 | Stable | 16
CCCCCOC(=O)N1CCN(C(=O)[C@H](CCC(=O)O)NC(=O)c2cc(N3CCC[C@H](O)C3)cc(-c3ccccc3)n2)CC1 | 3.7 | Stable | 2400 | Stable | 18
CCCCCOC(=O)N1CCN(C(=O)[C@H](CCC(=O)O)NC(=O)c2cc(N3CCCC(N)C3)cc(-c3ccccc3)n2)CC1 (some centres undefined) | 2.2 | Stable | 1800 | Stable | 5.5
CCCCCOC(=O)N1CCN(C(=O)[C@H](CCC(=O)O)NC(=O)c2cc(N3CC(N(C)C)C3)cc(-c3ccccc3)n2)CC1 | – | Stable | 2700 | Stable | 5.5
CCCCCOC(=O)N1CCN(C(=O)[C@H](CCC(=O)O)NC(=O)c2cc(N3CCCC(CNC(C)=O)C3)cc(-c3ccccc3)n2)CC1 (some centres undefined) | 3.4 | Stable | 2900 | Stable | 9.9
CCCCCOC(=O)N1CCN(C(=O)[C@H](CCC(=O)O)NC(=O)c2cc(N3CCN(CC(N)=O)CC3)cc(-c3ccccc3)n2)CC1 | 1.8 | Stable | 510 | Stable | 1.7
CCCCCOC(=O)N1CCN(C(=O)[C@H](CCC(=O)O)NC(=O)c2cc(N3CCN(CC(=O)N(C)C)CC3)cc(-c3ccccc3)n2)CC1 | 1.1 | Stable | 690 | Stable | 4.9
CCCCCOC(=O)N1CCN(C(=O)[C@H](CCC(=O)O)NC(=O)c2cc(N3CCN(CCN(C)C)CC3)cc(-c3ccccc3)n2)CC1 | 0.7 | Stable | 510 | Stable | 8.5
CCCCCOC(=O)N1CCN(C(=O)[C@H](CCC(=O)O)NC(=O)c2cc(N3CC[C@@H](C(=O)N4CCCC4)C3)cc(-c3ccccc3)n2)CC1 | 1.7 | Stable | 2200 | Stable | 1.4
CCCCCOC(=O)N1CCN(C(=O)[C@H](CCC(=O)O)NC(=O)c2cc(N3CC(O)C3)cc(-c3ccccc3)n2)CC1 | 9.2 | Stable | 8600 | Stable | 2.5
CCCCCOC(=O)N1CCN(C(=O)[C@H](CCC(=O)O)NC(=O)c2cc(N3CCN(C(N)=O)CC3)cc(-c3ccccc3)n2)CC1 | 1.8 | Stable | 1900 | Stable | 6.3
CCCCCOC(=O)N1CCN(C(=O)[C@H](CCC(=O)O)NC(=O)c2cc(N3CCCC(COC)C3)cc(-c3ccccc3)n2)CC1 (some centres undefined) | – | Stable | 11000 | Stable | 22
CCCCCOC(=O)N1CCN(C(=O)[C@H](CCC(=O)O)NC(=O)c2cc(N3CC(C(=O)NC)C3)cc(-c3ccccc3)n2)CC1 | – | Stable | 2000 | Stable | 1.7
CCCCCOC(=O)N1CCN(C(=O)[C@H](CCC(=O)O)NC(=O)c2cc(N3CC(OC)C3)cc(-c3ccccc3)n2)CC1 | – | Stable | > 10000 | Stable | 2
